Source: publication PMC11555678, “Improved Broad Spectrum Antifungal Drug Synergies with Cryptomycin, a Cdc50-Inspired Antifungal Peptide” (ACS Infectious Diseases, 2024)
Converted amounts (≈) assume the structure as drawn. Read-outs that look alike come from different tables or passages of the source.

What was measured:
[1] = test system: C. glabrata 2001; assay: microbe, parasite or virus in culture; assay type: cell-based, Candida glabrata; conditions: Nakaseomyces glabratus, 2001; compound alone; RPMI1640, 37 °C, 48 h; read-out: MIC
In short: (§1)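 Yeasts were grown overnight in YPD, washed twice in water, taken up in PBS and diluted to 5000 cfu/mL in RPMI. They were then added to plates holding 2-fold serial drug dilutions in RPMI1640 and incubated at 37 °C for 2 days.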

[2] = test system: C. glabrata FKS1-S629P; assay: microbe, parasite or virus in culture; assay type: cell-based, Candida glabrata; conditions: Nakaseomyces glabratus, FKS1S629P, 48 h
In short: as §1

[3] = test system: C. glabrata FKS2-S663P; assay: microbe, parasite or virus in culture; assay type: cell-based, Candida glabrata; conditions: Nakaseomyces glabratus, FKS2S663P, 48 h
In short: as §1

[4] = test system: C. auris B11245; assay: microbe, parasite or virus in culture; assay type: cell-based, Candida auris; conditions: Candidozyma auris, B11245; compound alone; RPMI1640, 37 °C, 48 h; * = paradoxical growth observed (CAS); read-out: MIC
Method: (§2) All microdilution assays with fungi were carried out in accordance with CLSI protocols from M27 for yeasts and M38 for filamentous fungi, respectively, unless otherwise specified.[64],[65] Briefly, 96-well plates were charged with RPMI1640 media, with operating volume in the first column, 200 μL, and half operating volume, 100 μL, in the remaining wells. Drug stock solution in DMSO was aliquoted into the first well in each row. Half of the volume in the dosed well was serially diluted 2-fold until column 11. Column 11 was used as the negative growth control, and column 12 was used as the positive growth control. ON yeast cultures in YPD were washed twice in DD-H2O, resuspended in PBS, and adjusted to 5000 cfu/mL in RPMI. The 96-well plate was inoculated with 100 μL aliquots of cell suspension per well. Plates were incubated at 37 °C for 2 days.

[5] = test system: C. neoformans H99; assay type: cell-based, Cryptococcus neoformans; conditions: RPMI1640, 37 °C; for MIC of antifungal in combination with KKOO / MIC of antifungal in combination with KKOO-NH2: 48 h
Method: as §2, with “Plates were incubated at 37 °C for 2 days.” left out
To assess drug synergy, the initial media charged to the plate contained the peptide at twice the final operating concentration; the remaining processing steps were identical to the MIC experiment. Upon addition of 100 μL of inoculant, the final operating concentration was achieved. Control MIC plates were prepared alongside drug synergy plates to account for the day-to-day variability in any individual MIC. FIC index is computed using eq 1. All MIC assays and drug synergy assays were completed with two technical replicates per 96-well plate and a minimum of two biological replicates per drug combination. If a difference in MIC between the two technical replicates on the plate were observed, only the higher concentration was reported as the MIC to reduce the possibility of type 1 error (false positive) [drawing 1] 1

[6] = test system: Cn H99; assay: microbe, parasite or virus in culture; assay type: cell-based, Cryptococcus neoformans; conditions: Cryptococcus neoformans, H99, 48 h, 37 °C, 48 h, read-out: MIC
Method: (§3) Previous studies have shown that modifying microbiological media with salts such as CaCl2 can have a drastic effect on the growth of fungi and their responses to antifungals.[19],[35] In the case of CaCl2, the divalent cation, Ca^2+, is involved in fungal cell stress response. To understand how the peptide activity may involve calcium and stress response, the MICs of KKOO, KKOO-NH2, FLC, and CAS were assessed as a function of the calcium concentration in liquid YPD media. It was observed that calcium enrichment completely desensitized the wild-type strain to KKOO and KKOO-NH2, Tables 7 and 8, respectively. Effects of calcium enrichment on the susceptibility of Cryptococcus to CAS similar to literature values were recorded, Supporting Information, Table S7.[35]
(§4) In order to control for the effects of enriching YPD with a divalent cation, MICs and ROS production were also measured as a function of the MgCl2 supplement at the same millimolar concentrations of cation as in the CaCl2-modified experiments. […] No peptide susceptibility changes were observed against Cn cdc50Δ in magnesium-enriched media, Table S9. ROS production in H99 induced by peptide exposure was inhibited after 30 min of treatment in the magnesium-enriched condition, similar to the levels observed in the calcium-enriched media at 16 μg/mL KKOO-NH2, Figure S1. […] The link between peptide activity and calcium homeostasis may be vital in understanding precisely how the peptide kills fungal cells and requires more research to elucidate.
as §2

[7] = test system: Cn cdc50Δ; assay: microbe, parasite or virus in culture; assay type: cell-based, Cryptococcus neoformans; conditions: 48 h, 37 °C, 48 h
Method: as §3, §4, §2

[8] = test system: Cn Crm1-oe; assay: microbe, parasite or virus in culture; assay type: cell-based, Cryptococcus neoformans; conditions: Cryptococcus neoformans, CRM1OE, 48 h, 37 °C
Method: as §3, §2

[9] = test system: Cn apt1Δ; assay: microbe, parasite or virus in culture; assay type: cell-based, Cryptococcus neoformans; conditions: Cryptococcus neoformans, 48 h, 37 °C, 48 h
Method: as §3, §2

[10] = test system: Cn crm1Δ; assay: microbe, parasite or virus in culture; assay type: cell-based, Cryptococcus neoformans; conditions: Cryptococcus neoformans, 48 h, 37 °C
Method: as §3, §2

CC[C@H](C)C[C@H](C)CCCCCCCCC(=O)N[C@H]1C[C@@H](O)[C@@H](NCCN)NC(=O)[C@@H]2[C@@H](O)CCN2C(=O)[C@H]([C@H](O)CCN)NC(=O)[C@H]([C@H](O)[C@@H](O)c2ccc(O)cc2)NC(=O)[C@@H]2C[C@@H](O)CN2C(=O)[C@H]([C@@H](C)O)NC1=O [CAS, caspofungin]
MIC [1]: 0.5 µg/mL (≈ 0.457 µM)
MIC [2]: 2 µg/mL (≈ 1.83 µM)
MIC [3]: 4 µg/mL (≈ 3.66 µM)
MIC [4]: 1 µg/mL (≈ 0.915 µM)
MIC of antifungal in combination with (FITC)KKOO ([5]; +0 μg/mL (FITC)KKOO): 16 µg/mL
MIC of antifungal in combination with KKOO ([5]; +0 μg/mL KKOO (control)): 16 µg/mL
MIC of antifungal in combination with KKOO-NH2 ([5]; +0 μg/mL KKOO-NH2 (control)): 16 µg/mL
MIC of antifungal in combination with KKOO-NH2 ([5]; +1 μg/mL KKOO-NH2): 16 µg/mL
MIC of antifungal in combination with KKOO ([5]; +1 μg/mL KKOO): 16 µg/mL
MIC of antifungal in combination with KKOO-NH2 ([5]; +2 μg/mL KKOO-NH2): 16 µg/mL
MIC of antifungal in combination with KKOO ([5]; +2 μg/mL KKOO): 16 µg/mL
MIC of antifungal in combination with (FITC)KKOO ([5]; +4 μg/mL (FITC)KKOO): 16 µg/mL
MIC of antifungal in combination with KKOO-NH2 ([5]; +4 μg/mL KKOO-NH2): 4 µg/mL
MIC of antifungal in combination with KKOO ([5]; +4 μg/mL KKOO): 16 µg/mL
MIC of antifungal in combination with (FITC)KKOO ([5]; +8 μg/mL (FITC)KKOO): 16 µg/mL
MIC of antifungal in combination with KKOO ([5]; +8 μg/mL KKOO): 8 µg/mL
MIC ([6]; YPD + 0 mM Ca2+): 8 µg/mL
MIC ([6]; YPD + 0 mM Mg2+): 8 µg/mL
MIC ([6]; YPD + 2.5 mM Ca2+): 16 µg/mL
MIC ([6]; YPD + 2.5 mM Mg2+): 16 µg/mL
MIC ([6]; YPD + 5 mM Ca2+): 32 µg/mL
MIC ([6]; YPD + 5 mM Mg2+): 16 µg/mL
MIC ([6]; YPD + 10 mM Ca2+): 64 µg/mL
MIC ([6]; YPD + 10 mM Mg2+): 32 µg/mL
MIC ([6]; YPD + 20 mM Mg2+): 64 µg/mL
MIC ([7]; Cryptococcus neoformans, YPD + 0 mM Ca2+): 4 µg/mL
MIC ([7]; Cryptococcus neoformans, YPD + 2.5 mM Ca2+): 8 µg/mL
MIC ([7]; Cryptococcus neoformans, YPD + 5 mM Ca2+): 16 µg/mL
MIC ([7]; Cryptococcus neoformans, YPD + 10 mM Ca2+): 32 µg/mL
MIC ([7]; Cryptococcus neoformans, YPD + 20 mM Ca2+): 8 µg/mL
MIC ([7]; YPD + 0 mM Mg2+, unit inferred): 4 µg/mL
MIC ([7]; YPD + 2.5 mM Mg2+, unit inferred): 8 µg/mL
MIC ([7]; YPD + 5 mM Mg2+, unit inferred): 8 µg/mL
MIC ([7]; YPD + 10 mM Mg2+, unit inferred): 8 µg/mL
MIC ([7]; YPD + 20 mM Mg2+, unit inferred): 8 µg/mL
MIC ([8]; YPD + 0 mM Ca2+): 8 µg/mL
MIC ([8]; YPD + 2.5 mM Ca2+): 32 µg/mL
MIC ([8]; YPD + 5 mM Ca2+): 32 µg/mL
MIC ([8]; YPD + 10 mM Ca2+): 128 µg/mL
MIC ([8]; YPD + 20 mM Ca2+): 128 µg/mL
MIC ([9]; YPD + 0 mM Ca2+): 8 µg/mL
MIC ([9]; YPD + 2.5 mM Ca2+): 16 µg/mL
MIC ([9]; YPD + 5 mM Ca2+): 32 µg/mL
MIC ([9]; YPD + 10 mM Ca2+): 32 µg/mL
MIC ([9]; YPD + 20 mM Ca2+): 64 µg/mL
MIC ([10]; YPD + 0 mM Ca2+): 8 µg/mL
MIC ([10]; YPD + 2.5 mM Ca2+): 32 µg/mL
MIC ([10]; YPD + 5 mM Ca2+): 32 µg/mL
MIC ([10]; YPD + 10 mM Ca2+): 64 µg/mL
MIC ([10]; YPD + 20 mM Ca2+): > 128 µg/mL
